Tests used:
SD rats = assay: animal or person; type: in vivo; settings: for ED50: Rattus norvegicus, SD rats (male, 220-300 g), injection via the tail vein, disappearance of righting reflex, read-out: ED50; for 2ED50 duration / 2ED50 recovery time / Quality of recovery: SD rats; for 2ED50 duration / 2ED50 recovery time: single tail vein injection at 2×ED50; for 2ED50 duration: time from disappearance to recovery of righting reflex; for 2ED50 recovery time: time from recovery of righting reflex to free crawling; for Quality of recovery: tail vein injection
KM mice = assay: animal or person; type: in vivo; settings: for 2ED50 duration / 2ED50 recovery time / Quality of recovery: KM mice; for 2ED50 duration / 2ED50 recovery time: single tail vein injection at 2×ED50; for 2ED50 duration: time from disappearance to recovery of righting reflex; for 2ED50 recovery time: time from recovery of righting reflex to free crawling; for Quality of recovery: tail vein injection; for ED50: Mus musculus, KM mice (male, 18-22 g), injection via the tail vein, disappearance of righting reflex, read-out: ED50

Row | SMILES | ED50 (SD rats) [mg/kg] | 2ED50 duration (SD rats) [min] | 2ED50 recovery time (SD rats) [min] | Quality of recovery (SD rats) | 2ED50 duration (KM mice) [min] | 2ED50 recovery time (KM mice) [min] | Quality of recovery (KM mice) | ED50 (KM mice) [mg/kg] | duration and recovery time compared with remimazolam (SD rats; rats, tail vein, in words) | effective dose compared with remimazolam (SD rats; rats, tail vein, in words) | duration and recovery time compared with remimazolam (KM mice; mice, tail vein, in words) | effective dose compared with remimazolam (KM mice; mice, tail vein, in words)
1 | COC(=O)OCOC(=O)CC[C@@H]1N=C(c2ccccn2)c2cc(Br)c(Br)cc2-n2c(C)cnc21 [Example 8] | 5.8 | 5.05 | 2.18 | ++++ (“++++” means 5-10 min) | 5.23 | 2.18 | +++ (“+++” means 3-5 min) | 27.5 | – | – | – | –
2 | CCOC(=O)OCOC(=O)CC[C@@H]1N=C(c2ccccn2)c2cc(Br)c(Br)cc2-n2c(C)cnc21 [Example 9] | 5.6 | 4.12 | 2.57 | +++ (“+++” means 3-5 min) | 5.48 | 2.07 | ++++ (“++++” means 5-10 min) | 31.6 | – | – | – | –
3 | Cc1cnc2n1-c1cc(Br)c(Br)cc1C(c1ccccn1)=N[C@H]2CCC(=O)OCOC(=O)OC(C)C [Example 10] | 5.8 | 5.31 | 2.06 | ++ (“++” means 1-3 min) | 5.12 | 2.06 | +++ (“+++” means 3-5 min) | 28.3 | – | – | – | –
4 | Cc1cnc2n1-c1cc(Br)c(Br)cc1C(c1ccccn1)=N[C@H]2CCC(=O)OCOC(=O)OC(C)(C)C [Example 11] | 5.9 | 5.03 | 2.43 | +++ (“+++” means 3-5 min) | 5.31 | 2.13 | ++ (“++” means 1-3 min) | 22.4 | – | – | – | –
5 | CCC(CC)OC(=O)OCOC(=O)CC[C@@H]1N=C(c2ccccn2)c2cc(Br)c(Br)cc2-n2c(C)cnc21 [Example 12] | 5.7 | 5.24 | 2.04 | ++ (“++” means 1-3 min) | 5.32 | 2.04 | +++ (“+++” means 3-5 min) | 31.3 | – | – | – | –
6 | Cc1cnc2n1-c1cc(Br)c(Br)cc1C(c1ccccn1)=N[C@H]2CCC(=O)OCOC(=O)OC(C)C(C)C (stereo partly shown) [Example 13] | 5.3 | 4.02 | 2.45 | +++ (“+++” means 3-5 min) | 5.22 | 2.34 | +++ (“+++” means 3-5 min) | 27 | – | – | – | –
7 | Cc1cnc2n1-c1cc(Br)c(Br)cc1C(c1ccccn1)=N[C@H]2CCC(=O)OCOC(=O)OC(C(C)C)C(C)C [Example 14] | 6.9 | 5.06 | 2.39 | ++ (“++” means 1-3 min) | 6.42 | 2.29 | +++ (“+++” means 3-5 min) | 32 | – | – | – | –
8 | COC(=O)OC(C)OC(=O)CC[C@@H]1N=C(c2ccccn2)c2cc(Br)c(Br)cc2-n2c(C)cnc21 (stereo partly shown) [Example 15] | 1.5 | 1.29 | 1.01 | + (“+” means <1 min) | 1.43 | 1.01 | – | 18.3 | significantly shorter | significantly lower | significantly shorter | significantly lower

Source: patent US12473291B2 (priority 2019, dated 2025)
